# Source: BindingDB's records for doi:10.7270/Q2TX3CTT (Broad Institute, 2010)
# Molecular target: Glycogen synthase kinase-3 beta (Homo sapiens, UniProt P49841)
# Assay: concentration-response blocking of human GSK3B – biochemical, luminescence, cell-free homogeneous, retest, dose response (AID 434954)
# Glycogen synthase kinase-3 beta, sequence (P49841 whole entry): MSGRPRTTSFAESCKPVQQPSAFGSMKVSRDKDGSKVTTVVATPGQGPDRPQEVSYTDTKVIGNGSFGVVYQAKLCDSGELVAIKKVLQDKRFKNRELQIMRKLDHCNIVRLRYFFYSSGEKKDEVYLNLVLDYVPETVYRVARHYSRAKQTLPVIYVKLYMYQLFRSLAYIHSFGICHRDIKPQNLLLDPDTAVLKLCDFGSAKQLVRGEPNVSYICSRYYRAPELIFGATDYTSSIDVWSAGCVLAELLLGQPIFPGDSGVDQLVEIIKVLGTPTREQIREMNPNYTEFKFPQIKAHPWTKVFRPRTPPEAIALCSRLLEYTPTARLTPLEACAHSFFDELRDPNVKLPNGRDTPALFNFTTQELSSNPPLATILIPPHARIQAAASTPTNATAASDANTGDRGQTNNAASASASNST
row,EC50 [µM],SMILES
1,23,"CCN(CC)Cc1c(C(=O)NN=Cc2ccc(C)o2)nnn1-c1nonc1N [1-(4-amino-1,2,5-oxadiazol-3-yl)-5-(diethylaminomethyl)-N-[(5-methylfuran-2-yl)methylideneamino]triazole-4-carboxamide]"
2,> 300,O=C(O)CNCC1COc2ccccc2O1 (stereo unspecified) [MLS000068078]
3,> 300,"Cc1c([CH+][N-]NC(=O)COc2ccccc2[N+](=O)[O-])c2ccccc2n1C [N-[(1,2-dimethylindol-3-yl)methylideneamino]-2-(2-nitrophenoxy)acetamide]"
4,6.11,CN1CCN(/N=C2\C(=O)Nc3ccc([N+](=O)[O-])cc32)CC1 [SMR000347605]
5,9.3,"O=C(COc1cccc2cccnc12)NN=Cc1ccc(O)cc1 [N'-[(4-oxo-1-cyclohexa-2,5-dienylidene)methyl]-2-(8-quinolinyloxy)acetohydrazide]"
6,> 300,N#Cc1c(-c2ccccc2)nc(-c2cccnc2)[nH]c1=O [MLS001165441]
7,> 300,COc1ccc(-c2nn(-c3ccccc3)cc2C=NNC(=O)c2ccc(Br)o2)cc1 [5-bromo-N-[[3-(4-methoxyphenyl)-1-phenyl-4-pyrazolyl]methylideneamino]-2-furancarboxamide]
8,> 300,COCc1c(C(N)=O)nnn1-c1nonc1N [MLS000089737]
9,> 300,"CC1=C(C(=O)N2CCCCC2)C(c2cccs2)C2C(=O)CCCC2=N1 (stereo unspecified) [2-methyl-3-piperidin-1-ylcarbonyl-4-thiophen-2-yl-4,6,7,8-tetrahydro-1H-quinolin-5-one]"
10,> 300,CCN1C(=O)N[C@@H](c2ccccc2)[C@@H](C(=O)OC)[C@H]1C [CMLD004197]
11,> 300,CS(=O)(=O)N1CCN(c2cccc(Cl)n2)CC1 [MLS000594331]
